Columns and labels:
[1] = biological target: T1, Human soluble guanylate cyclase enzyme (hsGC) (Homo sapiens, UniProt Q02108+Q02153); test: Purified human sGC enzyme activity assay (without SNP); format: biochemical; conditions: compound at 30 μM, absence of SNP; fold over DMSO control; Table 5A
T1 construct: purchased Enzo Inc. ALX-201-177
T1 sequence (Q02153 1-619): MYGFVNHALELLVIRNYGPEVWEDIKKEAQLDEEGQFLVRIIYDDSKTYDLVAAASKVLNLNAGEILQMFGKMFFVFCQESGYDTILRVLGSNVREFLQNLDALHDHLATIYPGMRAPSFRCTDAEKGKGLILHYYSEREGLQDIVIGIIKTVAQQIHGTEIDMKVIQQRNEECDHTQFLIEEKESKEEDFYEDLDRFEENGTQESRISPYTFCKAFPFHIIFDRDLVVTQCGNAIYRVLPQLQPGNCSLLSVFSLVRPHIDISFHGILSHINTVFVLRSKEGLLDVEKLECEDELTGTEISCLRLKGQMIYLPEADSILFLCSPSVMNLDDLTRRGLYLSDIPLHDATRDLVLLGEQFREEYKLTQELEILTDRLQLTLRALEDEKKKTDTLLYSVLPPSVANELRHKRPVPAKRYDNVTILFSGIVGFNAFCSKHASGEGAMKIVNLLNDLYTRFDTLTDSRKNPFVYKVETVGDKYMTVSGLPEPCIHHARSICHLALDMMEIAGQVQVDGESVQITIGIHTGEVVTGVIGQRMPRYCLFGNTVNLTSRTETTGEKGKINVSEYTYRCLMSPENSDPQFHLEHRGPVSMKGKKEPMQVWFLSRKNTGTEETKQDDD
T1 sequence (Q02108 1-690): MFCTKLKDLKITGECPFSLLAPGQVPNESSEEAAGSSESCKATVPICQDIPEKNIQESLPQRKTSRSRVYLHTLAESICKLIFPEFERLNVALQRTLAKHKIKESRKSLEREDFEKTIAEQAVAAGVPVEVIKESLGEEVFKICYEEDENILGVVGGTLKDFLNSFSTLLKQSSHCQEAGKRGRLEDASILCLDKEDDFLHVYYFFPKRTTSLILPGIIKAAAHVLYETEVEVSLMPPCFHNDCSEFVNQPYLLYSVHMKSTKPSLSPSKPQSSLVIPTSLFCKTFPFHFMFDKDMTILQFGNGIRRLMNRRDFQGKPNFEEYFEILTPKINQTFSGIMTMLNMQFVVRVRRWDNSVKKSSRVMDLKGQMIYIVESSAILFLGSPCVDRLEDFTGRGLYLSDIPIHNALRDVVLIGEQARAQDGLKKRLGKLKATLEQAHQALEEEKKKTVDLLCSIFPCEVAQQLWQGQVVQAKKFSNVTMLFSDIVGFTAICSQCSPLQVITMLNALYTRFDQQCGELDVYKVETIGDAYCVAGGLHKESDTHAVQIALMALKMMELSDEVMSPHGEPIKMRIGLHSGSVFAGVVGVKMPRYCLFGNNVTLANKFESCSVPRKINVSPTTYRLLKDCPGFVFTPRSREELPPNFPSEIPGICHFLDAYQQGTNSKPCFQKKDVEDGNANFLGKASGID
Summary of the method: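 Purified human sGC (5 ng) in 0.1 M Tris pH 8.0, 2 mM DTT, 2 mM MgCl2, 300 μM GTP, 1 mM IBMX, with compound at 10 or 30 μM final, 30 min at 37° C.; methanol-stopped. cGMP quantified against a standard curve; specific activity expressed as fold-change over DMSO control.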

Thoracic aortic rings = test: Alternative thoracic aortic rings assay (Example 5; original resting tension as 100% inhibition); conditions: rat thoracic aortic rings contracted with phenylephrine; for Aortic Ring Percent Relaxation at 1 μM: compound at 1 μM; for Aortic Ring Percent Relaxation at 3 μM: compound at 3 μM; for Aortic Ring Percent Relaxation at 10 μM: compound at 10 μM; for EC50: read-out: Aortic Ring EC50
Method: Thoracic aortic rings were dissected from anesthetized (isoflurane) male Sprague-Dawley rats weighing 275-299 g. Tissues were immediately transferred to ice-cold Krebs-Henseleit solution, which had been aerated with 95% 02 and 5% CO2 for 30 minutes. Following removal of connective tissue, aortic sections were cut into 4 rings (˜2 mm each) and suspended on 2 L-shaped hooks, with one hook fixed at the bottom of the tissue bath (Schuler Organ Bath, Harvard Apparatus) and the other connected to a force transducer (F30 Force Transducer, Harvard Apparatus). Baths contained Krebs Henseleit solution (10 mL) heated to 37° C. and aerated with 95% 02 and 5% CO2. Rings were brought to an initial tension of 0.3-0.5 g and gradually raised to a resting tension of 1.0 g over 60 minutes. Rings were rinsed with Krebs Henseleit solution (heated to 37° C. and aerated with 95% 02 and 5% CO2) at 15 minute intervals until a stable baseline was obtained. Rings were considered to be stable after a resting tension of 1.0 g was maintained (for approximately 10 minutes) without need for adjustment. Rings were then contracted with 100 ng/mL phenylephrine by adding 100 μL of a 10 μg/mL phenylephrine stock solution. Tissues achieving a stable contraction were then treated in a cumulative, dose dependent manner with test compounds prepared in dimethylsulfoxide (DMSO). In some cases, tissues were rinsed three times over a 5 minute period with Krebs-Heinseleit's solution (heated to 37° C. and aerated with 95% 02 and 5% CO2), allowed to stabilize at baseline, and then used for characterization of other test articles or DMSO effects. All data were collected using the HSE-ACAD software provided by Harvard Apparatus. […] EC50 values were calculated from concentration-response curves generated with GraphPad Prism Software.
Biological Activity Measurement by the Thoracic Aortic Rings Assay
The biological data for some of a compound of Table I, in comparison with the known compound, BAY 41-2272, as the reference compound, determined by the thoracic aorta ring assay of Example 5 are presented in Table 6 below.

Row | Enzyme Activity (increase at 30 μM without SNP) [1] | EC50 (Thoracic aortic rings) [µM] | Structure (SMILES) | Aortic Ring Percent Relaxation at 1 μM (Thoracic aortic rings) | Aortic Ring Percent Relaxation at 3 μM (Thoracic aortic rings) | Aortic Ring Percent Relaxation at 10 μM (Thoracic aortic rings)
1 | D (10 or <20 fold increase) | < 2 | Nc1nc(-c2cc(-c3ccon3)n(Cc3ccccc3F)n2)ncc1NC(=O)C1(c2ccccc2)CC1 [Compound 27] | F (80 to <100%) | G (100 to <120%) | G (100 to <120%)
2 | C (5 to <10 fold increase) | < 2 | Nc1nc(-c2cc(-c3ccon3)n(Cc3cccc(F)c3F)n2)ncc1NC(=O)C1(C(F)(F)F)CC1 [Compound 40] | G (100 to <120%) | G (100 to <120%) | G (100 to <120%)
3 | D (10 or <20 fold increase) | < 2 | Nc1nc(-c2cc(-c3ccon3)n(Cc3ccccc3F)n2)ncc1NC(=O)C1(F)CC1 [Compound 35] | G (100 to <120%) | H (higher than 120%) | H (higher than 120%)

From patent publication US20150342954A1, “2-BENZYL, 3-(PYRIMIDIN-2-YL) SUBSTITUTED PYRAZOLES USEFUL AS SGC STIMULATORS” (IRONWOOD PHARMACEUTICALS, INC., priority 2011, published 2015)
